For test [1], the target named is T1, Kinesin-like protein KIF15 (Homo sapiens) (UniProt Q9NS87).
T1 sequence (whole entry): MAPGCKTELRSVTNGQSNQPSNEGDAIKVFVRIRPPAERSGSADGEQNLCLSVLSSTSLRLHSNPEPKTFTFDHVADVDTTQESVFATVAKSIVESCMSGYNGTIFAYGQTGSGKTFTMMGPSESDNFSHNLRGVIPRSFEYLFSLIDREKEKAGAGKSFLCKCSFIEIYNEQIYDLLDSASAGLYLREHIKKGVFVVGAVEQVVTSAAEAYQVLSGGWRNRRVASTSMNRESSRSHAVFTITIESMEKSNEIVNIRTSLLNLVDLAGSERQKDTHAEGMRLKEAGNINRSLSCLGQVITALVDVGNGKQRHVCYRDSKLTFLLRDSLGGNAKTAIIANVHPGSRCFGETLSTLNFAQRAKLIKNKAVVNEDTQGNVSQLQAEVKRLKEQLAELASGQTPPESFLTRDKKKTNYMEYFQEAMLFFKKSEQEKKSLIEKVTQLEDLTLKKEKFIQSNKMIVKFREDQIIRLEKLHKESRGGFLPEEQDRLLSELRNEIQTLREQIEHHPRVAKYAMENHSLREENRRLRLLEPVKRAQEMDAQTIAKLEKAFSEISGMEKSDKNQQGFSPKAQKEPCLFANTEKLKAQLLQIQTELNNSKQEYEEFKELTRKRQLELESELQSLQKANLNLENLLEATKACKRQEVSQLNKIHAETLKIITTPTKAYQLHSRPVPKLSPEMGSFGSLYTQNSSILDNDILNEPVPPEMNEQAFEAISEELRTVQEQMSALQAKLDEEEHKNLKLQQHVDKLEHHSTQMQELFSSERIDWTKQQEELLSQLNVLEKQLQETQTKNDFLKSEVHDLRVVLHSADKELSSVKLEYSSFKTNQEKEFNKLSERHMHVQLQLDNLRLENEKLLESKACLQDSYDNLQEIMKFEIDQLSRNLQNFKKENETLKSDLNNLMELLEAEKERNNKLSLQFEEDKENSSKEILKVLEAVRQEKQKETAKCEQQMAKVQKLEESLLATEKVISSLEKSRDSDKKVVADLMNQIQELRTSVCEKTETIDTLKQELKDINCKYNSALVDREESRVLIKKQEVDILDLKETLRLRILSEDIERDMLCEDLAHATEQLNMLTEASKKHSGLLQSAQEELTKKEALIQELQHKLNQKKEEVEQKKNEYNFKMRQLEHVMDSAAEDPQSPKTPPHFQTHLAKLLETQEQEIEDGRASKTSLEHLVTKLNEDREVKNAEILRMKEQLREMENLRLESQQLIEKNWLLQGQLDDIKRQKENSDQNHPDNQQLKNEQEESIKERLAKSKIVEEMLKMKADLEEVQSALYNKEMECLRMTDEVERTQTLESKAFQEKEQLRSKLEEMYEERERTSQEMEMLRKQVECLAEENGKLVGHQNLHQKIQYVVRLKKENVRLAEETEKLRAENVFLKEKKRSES
The test is described as follows: Inhibition of recombinant His6-tagged Kif15 ATPase activity (N420 residues) (unknown origin) expressed in HeLa cells at 10 uM using microtubule as substrate preincubated for 15 mins followed by ATP addition and measured after 20 mins by ADP-Glo luminescence assay relative to control. (ADP-Glo first removes unused ATP, then detects ADP through luciferase.)

Test [2] concerns the target T2, Kinesin-like protein KIF11 (Homo sapiens) (UniProt P52732).
T2 sequence (whole entry): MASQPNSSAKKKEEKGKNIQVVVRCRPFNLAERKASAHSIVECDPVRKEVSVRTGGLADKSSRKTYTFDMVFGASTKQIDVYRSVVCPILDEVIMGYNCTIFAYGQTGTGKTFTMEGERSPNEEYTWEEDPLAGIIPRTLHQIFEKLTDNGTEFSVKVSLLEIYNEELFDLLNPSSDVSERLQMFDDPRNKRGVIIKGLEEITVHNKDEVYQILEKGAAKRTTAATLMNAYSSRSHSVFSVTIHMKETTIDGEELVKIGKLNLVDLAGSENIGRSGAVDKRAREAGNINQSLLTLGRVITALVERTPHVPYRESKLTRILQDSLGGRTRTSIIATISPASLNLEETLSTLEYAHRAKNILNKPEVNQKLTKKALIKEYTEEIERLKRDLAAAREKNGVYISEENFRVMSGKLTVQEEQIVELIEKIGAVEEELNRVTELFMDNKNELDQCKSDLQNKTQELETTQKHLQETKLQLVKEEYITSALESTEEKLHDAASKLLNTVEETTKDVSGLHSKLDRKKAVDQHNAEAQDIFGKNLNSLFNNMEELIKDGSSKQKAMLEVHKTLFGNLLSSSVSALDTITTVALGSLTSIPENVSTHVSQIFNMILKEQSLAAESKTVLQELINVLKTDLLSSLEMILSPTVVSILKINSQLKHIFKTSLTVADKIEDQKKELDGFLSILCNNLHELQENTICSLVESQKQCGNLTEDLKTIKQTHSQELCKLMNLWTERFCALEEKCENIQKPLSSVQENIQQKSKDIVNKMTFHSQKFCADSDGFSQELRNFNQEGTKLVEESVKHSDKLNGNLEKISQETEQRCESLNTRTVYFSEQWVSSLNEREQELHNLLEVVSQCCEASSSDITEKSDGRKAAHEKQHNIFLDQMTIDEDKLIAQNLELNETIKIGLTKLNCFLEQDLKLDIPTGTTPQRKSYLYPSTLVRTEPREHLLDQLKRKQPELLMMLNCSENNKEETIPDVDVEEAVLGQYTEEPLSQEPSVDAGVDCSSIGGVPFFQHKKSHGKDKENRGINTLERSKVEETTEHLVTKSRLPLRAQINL
Description: Inhibition of Eg5 (unknown origin) assessed as reduction in Alexa-594 labelled microtubule gliding at 30 uM measured every 2 secs for 20 secs by epifluorescence microscopic analysis relative to control.

For test [3], the target named is T1, Kinesin-like protein KIF15 (Homo sapiens). Description: Inhibition of Kif15 in TP53-deficient human RPE1 cells assessed as reduction in Kif15 level at 25 uM after 24 hrs by Western blot analysis relative to control. Background: Immunoblotting shows a protein as a band on a membrane.
Test [4] has the same target. The test is described as follows: Inhibition of recombinant His6-tagged Kif15 (N700 residues) (unknown origin) expressed in HeLa cells assessed as reduction in Alexa-594 labelled microtubule gliding at 750 nM measured every 2 secs for 20 secs by epifluorescence microscopic analysis (reference value: 1%). Format: cell-based.
Test [5] has the same target. Description: ATP non-competitive inhibition of recombinant His6-tagged Kif15 ATPase activity (N700 residues) (unknown origin) expressed in HeLa cells at 0.5 to 2 uM using microtubule as substrate preincubated for 30 mins followed by varying levels of ATP addition by double reciprocal Lineweaver-Burk plot analysis.
Test [6] has the same target. The test is described as follows: ATP non-competitive inhibition of recombinant His6-tagged Kif15 ATPase activity (N700 residues) (unknown origin) expressed in HeLa cells at 0.5 to 2 uM using varying levels of microtubule as substrate preincubated for 30 mins followed by ATP addition by double reciprocal Lineweaver-Burk plot analysis. Format: cell-based.

Results on one molecule are retold here after ChEMBL document CHEMBL4371054, “Dual inhibition of Kif15 by oxindole and quinazolinedione chemical probes” (Bioorg Med Chem Lett, 2019).

The source made the active and inactive calls. The calls are words filed in the database; no cut-off is given here.

For the molecule `O=C1Nc2ccc(C(=O)c3ccco3)cc2/C1=C/c1cc(Cl)c(O)c(Cl)c1`, the inhibition was 76% in test [1], 19.8% in test [2], 60% in test [3] and 49% in test [4]. Further, the inhibition result in test [5] and in test [6] was “Active” throughout.

As a reminder, the inhibition is the percentage by which the read-out fell short of the control.
